# Results reported in PubChem BioAssay AID1259408 (Genetic Toxicology Data Bank (GENE-TOX), 2018).
# The source made the active and inactive calls. How the calls were made is not given here.
# System: GENE-TOX genotoxicity assays, various organisms and cells
# Assay: GENE-TOX mutagenicity studies
# Source text: GENE-TOX provides genetic toxicology (mutagenicity) test data from expert peer review of open scientific literature for more than 3,000 chemicals from the United States Environmental Protection Agency (EPA). GENE-TOX was established to select assay systems for evaluation, review data in the scientific literature, and recommend proper testing protocols and evaluation procedures for these systems.
# GENE-TOX covers the years 1991 - 1998. It is no longer updated.
# This is an archive assay for GENE-TOX mutagenicity studies.
# [1] = Species/Cell Type: Escherichia coli polA (W3119 vs P3478), Assay Type: Rec-assay, DNA effects (bacterial DNA repair), Assay Code: RE1T, Evaluation Type: Evaluation A (Pre-1980)
# [2] = Species/Cell Type: Drosophila melanogaster, Assay Type: Sex-linked recessive lethal gene mutation, Assay Code: SRL+, Evaluation Type: Evaluation A (Pre-1980)
# [3] = Species/Cell Type: Saccharomyces cerevisiae, Assay Type: Mitotic recombination or gene conversion, Assay Code: YEC+, Evaluation Type: Evaluation A (Pre-1980)
# [4] = Species/Cell Type: Salmonella typhimurium (one or more of the five standard strains: TA98, TA100, TA1535, TA1537, and TA1538), Assay Type: Histidine reverse gene mutation, Ames assay, Assay Code: SAL+, Evaluation Type: Evaluation A (Pre-1980)
# [5] = Species/Cell Type: Saccharomyces cerevisiae, Assay Type: Mitotic recombination or gene conversion, Assay Code: YEC-, Evaluation Type: Evaluation A (Pre-1980)
# [6] = Species/Cell Type: Rodents, Sex: Male, Assay Type: Dominant lethal test, Assay Code: DLT-, Evaluation Type: Evaluation A (Pre-1980)
structure (smiles),measurement,setting,value
NC1(C(=O)O)CCCC1,mutagenic call,[1],no conclusion
CC1CC(=O)O1 (configuration not stated),call,"Species/Cell Type: Nonhuman, Assay Type: In vivo carcinogenicity studies, Assay Code: CCG+, Evaluation Type: Evaluation A (Pre-1980)",active; positive
COc1ccc(N=NN(C)C)cc1,mutagenic call,[2],active; positive
same,mutagenic call,[3],active; positive
O=C(OOC(=O)c1ccccc1)c1ccccc1,mutagenic call,[1],no conclusion
c1ccc2c(c1)ccc1c3ccccc3c(C3CO3)cc21 (configuration not stated),mutagenic call,[4],active; positive
CCCN(N=O)/C(N)=N/[N+](=O)[O-],mutagenic call,"Species/Cell Type: Arabidopsis species, Assay Type: Gene mutation, Assay Code: ARM+, Evaluation Type: Evaluation A (Pre-1980)",active; positive
same,mutagenic call,[4],active; positive
O=Cc1ccc([N+](=O)[O-])o1,mutagenic call,"Species/Cell Type: Escherichia coli WP2, Assay Type: Tryptophan reverse gene mutation, Assay Code: WP2-, Evaluation Type: Evaluation A (Pre-1980)",inactive; negative
same,mutagenic call,[5],inactive; negative
OCNc1nc(NCO)nc(NCO)n1,mutagenic call,[2],active; positive
Nc1nnc(/C(=C/c2ccc([N+](=O)[O-])o2)c2ccco2)o1,mutagenic call,"Species/Cell Type: Human diploid fibroblasts, Assay Type: Unscheduled DNA synthesis (UDS) in vitro, DNA effects, Assay Code: UDH+, Evaluation Type: Evaluation A (Pre-1980)",active; positive
O[C@@H]([C@H](O)[C@H](O)CBr)[C@H](O)CBr,mutagenic call,"Species/Cell Type: Nonhuman, Assay Type: Sister-chromatid exchange (SCE) in vivo, Assay Code: SC3+D, Dose Response: With dose response, Evaluation Type: Evaluation B (Post-1980)",active; positive
Cc1c([N+](=O)[O-])cc[n+]([O-])c1C,mutagenic call,"Species/Cell Type: Escherichia coli polA (W3119 vs P3478), Assay Type: Rec-assay, DNA effects (bacterial DNA repair), Assay Code: RE1+, Evaluation Type: Evaluation A (Pre-1980)",active; positive
O=C(NOS(=O)(=O)O)c1ccc2ccccc2c1,mutagenic call,"Species/Cell Type: Nonhuman, Assay Type: Sister-chromatid exchange (SCE) in vitro, Assay Code: SC2+D, Dose Response: With dose response, Evaluation Type: Evaluation B (Post-1980)",active; positive
CC[C@@]1(O)C[C@H](O[C@H]2C[C@H](N(C)C)[C@H](O)[C@H](C)O2)c2c(cc3c(c2O)C(=O)c2c(O)cccc2C3=O)[C@H]1C(=O)OC,mutagenic call,"Species/Cell Type: Salmonella typhimurium (one or more of the five standard strains: TA98, TA100, TA1535, TA1537, and TA1538), Assay Type: Histidine reverse gene mutation, Ames assay, Assay Code: SALT, Evaluation Type: Evaluation A (Pre-1980)",no conclusion
O=NN(CCCl)C(=O)NCCCCCCNC(=O)N(CCCl)N=O,mutagenic call,[2],active; positive
same,mutagenic call,[3],active; positive
Clc1ccc(N=Nc2ccc(Cl)c(Cl)c2)cc1Cl,mutagenic call,"Species/Cell Type: Aspergillus nidulans, Assay Type: Forward gene mutation, Assay Code: ASF+, Evaluation Type: Evaluation A (Pre-1980)",active; positive
same,mutagenic call,"Species/Cell Type: Rat primary hepatocytes, Assay Type: Unscheduled DNA synthesis (UDS) in vitro, DNA effects, Assay Code: UDP+D, Dose Response: With dose response, Evaluation Type: Evaluation A (Pre-1980)",active; positive
CO[C@H]1/C=C/O[C@@]2(C)Oc3c(C)c(O)c4c(O)c(c(/C=N/N5CCN(C)CC5)c(O)c4c3C2=O)NC(=O)/C(C)=C\C=C\[C@H](C)[C@H](O)[C@@H](C)[C@@H](O)[C@@H](C)[C@H](OC(C)=O)[C@@H]1C,mutagenic call,"Species/Cell Type: Drosophila melanogaster, Assay Type: Sex-linked recessive lethal gene mutation, Assay Code: SRLT, Evaluation Type: Evaluation A (Pre-1980)",no conclusion
O=C(O)Cc1ccccc1[N+](=O)[O-],mutagenic call,[4],active; positive
O=S(=O)(O)c1ccc2c(N=Nc3ccc(S(=O)(=O)O)c4ccccc34)c(O)c(S(=O)(=O)O)cc2c1,mutagenic call,"Species/Cell Type: Bacillus subtilis (H17 vs M45), Assay Type: Rec-assay, spot test, DNA effects (bacterial DNA repair), Assay Code: REWT, Evaluation Type: Evaluation A (Pre-1980)",no conclusion
same,mutagenic call,"Species/Cell Type: Bacillus subtilis (H17 vs M45T), Assay Type: Rec-assay, spot test, DNA effects (bacterial DNA repair), Assay Code: REXT, Evaluation Type: Evaluation A (Pre-1980)",no conclusion
same,mutagenic call,[6],inactive; negative
same,mutagenic call,[5],inactive; negative
same,mutagenic call,"Species/Cell Type: Salmonella typhimurium (one or more of the five standard strains: TA98, TA100, TA1535, TA1537, and TA1538), Assay Type: Histidine reverse gene mutation, Ames assay, Assay Code: SAL-, Evaluation Type: Evaluation A (Pre-1980)",inactive; negative
same,mutagenic call,"Species/Cell Type: Syrian hamster embryo (SA7/SHE) cells, Assay Type: Cell transformation, viral enhanced, Assay Code: CT7-, Evaluation Type: Evaluation A (Pre-1980)",inactive; negative
CNC(=O)Nc1nc(-c2ccccc2)cs1,mutagenic call,"Species/Cell Type: Salmonella typhimurium, Serratia marcesens, Assay Type: Forward and reverse gene mutation, host-mediated assay, Assay Code: HM2+, Evaluation Type: Evaluation A (Pre-1980)",active; positive
O=C[C@H](O)[C@@H](O)[C@H](O)[C@H](S)CO,mutagenic call,[6],inactive; negative
Cn1cncc1[N+](=O)[O-],mutagenic call,[4],active; positive
O=S(=O)(O)c1ccc(O)c2ncccc12,mutagenic call,"Species/Cell Type: Salmonella typhimurium (one or more of the five standard strains: TA98, TA100, TA1535, TA1537, and TA1538), Assay Type: Histidine reverse gene mutation, Ames assay, Assay Code: SAL+*, Activation: With metabolic activation, Evaluation Type: Evaluation A (Pre-1980)",active; positive
